Molecules are shown by their SMILES.

T1 sequence (P20701 26-1170): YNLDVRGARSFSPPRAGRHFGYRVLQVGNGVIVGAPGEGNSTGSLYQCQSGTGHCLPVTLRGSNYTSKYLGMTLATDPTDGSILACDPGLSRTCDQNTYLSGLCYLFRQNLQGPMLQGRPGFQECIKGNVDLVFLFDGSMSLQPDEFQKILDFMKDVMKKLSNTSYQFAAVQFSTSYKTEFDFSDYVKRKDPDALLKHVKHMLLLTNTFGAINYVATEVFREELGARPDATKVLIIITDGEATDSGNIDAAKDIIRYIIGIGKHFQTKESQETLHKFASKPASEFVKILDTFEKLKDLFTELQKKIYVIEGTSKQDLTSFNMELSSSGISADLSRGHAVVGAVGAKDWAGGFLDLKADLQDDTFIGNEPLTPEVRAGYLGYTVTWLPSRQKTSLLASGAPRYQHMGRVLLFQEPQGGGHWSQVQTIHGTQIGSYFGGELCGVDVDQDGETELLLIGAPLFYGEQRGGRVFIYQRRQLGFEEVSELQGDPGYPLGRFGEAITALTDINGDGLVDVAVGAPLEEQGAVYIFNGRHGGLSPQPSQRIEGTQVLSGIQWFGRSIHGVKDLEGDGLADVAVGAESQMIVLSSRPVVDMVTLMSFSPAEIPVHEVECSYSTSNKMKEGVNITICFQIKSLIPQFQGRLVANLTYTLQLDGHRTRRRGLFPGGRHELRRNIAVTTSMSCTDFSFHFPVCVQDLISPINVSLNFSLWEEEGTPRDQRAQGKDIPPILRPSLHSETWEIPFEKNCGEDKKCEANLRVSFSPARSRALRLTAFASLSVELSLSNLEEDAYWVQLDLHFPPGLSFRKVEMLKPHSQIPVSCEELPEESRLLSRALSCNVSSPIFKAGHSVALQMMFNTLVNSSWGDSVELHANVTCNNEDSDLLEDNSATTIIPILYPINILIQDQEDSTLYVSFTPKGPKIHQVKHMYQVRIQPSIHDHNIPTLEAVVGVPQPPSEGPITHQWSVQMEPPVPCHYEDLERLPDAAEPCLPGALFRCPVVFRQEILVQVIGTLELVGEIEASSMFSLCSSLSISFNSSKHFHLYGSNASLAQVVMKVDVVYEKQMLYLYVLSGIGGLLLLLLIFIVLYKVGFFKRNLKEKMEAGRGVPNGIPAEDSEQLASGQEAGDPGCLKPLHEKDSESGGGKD
T1 sequence (P05107 23-769): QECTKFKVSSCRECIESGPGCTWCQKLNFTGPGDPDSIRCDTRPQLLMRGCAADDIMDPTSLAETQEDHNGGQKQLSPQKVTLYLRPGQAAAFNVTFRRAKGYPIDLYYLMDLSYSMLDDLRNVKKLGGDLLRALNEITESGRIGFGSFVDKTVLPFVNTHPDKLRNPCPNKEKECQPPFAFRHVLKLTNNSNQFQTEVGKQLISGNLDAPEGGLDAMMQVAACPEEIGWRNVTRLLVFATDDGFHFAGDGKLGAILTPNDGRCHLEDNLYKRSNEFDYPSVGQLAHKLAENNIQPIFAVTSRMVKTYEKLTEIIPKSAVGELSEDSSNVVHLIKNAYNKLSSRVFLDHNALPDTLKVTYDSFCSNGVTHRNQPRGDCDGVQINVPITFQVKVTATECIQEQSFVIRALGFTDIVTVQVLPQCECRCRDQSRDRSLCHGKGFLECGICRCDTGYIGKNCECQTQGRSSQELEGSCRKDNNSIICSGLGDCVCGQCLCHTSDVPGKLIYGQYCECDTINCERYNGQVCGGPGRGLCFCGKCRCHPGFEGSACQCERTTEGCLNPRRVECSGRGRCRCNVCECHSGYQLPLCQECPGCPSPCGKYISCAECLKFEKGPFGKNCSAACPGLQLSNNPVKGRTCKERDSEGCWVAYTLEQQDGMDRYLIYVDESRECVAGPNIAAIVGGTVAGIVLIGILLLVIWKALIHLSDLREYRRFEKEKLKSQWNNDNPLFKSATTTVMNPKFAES

One data set addresses T1, interaction of ICAM-1 with the Leukointegrin CD18/CD11a (LFA-1) (Homo sapiens, UniProt P05107+P20701).
T1 construct: endogenous in cells; sICAM-1: made in house, secreted from transfected CHO DUX cells
The data set can be described thus: Assay to determine inhibition of LFA-1 binding to ICAM-1 (immunopurified LFA-1 on plate-bound sICAM-1, ELISA readout).
Conditions: not given
A general note: In an ELISA, binding on a coated surface is turned into a signal by an enzyme label.
In the case of `CC1(Cc2ccc(-c3cc4ccccc4o3)cc2)NC(=O)N(c2cc(Cl)cc(Cl)c2)C1=O` (stereo not drawn) [Example 209], the Kd – broadly, the equilibrium constant for the complex coming apart – was found to be 940 nM.
Still for that read-out and setting: the same measure for `Cc1cc(C)cc(-c2ccc(CC3(C)NC(=O)N(c4cc(Cl)cc(Cl)c4)C3=O)cc2)c1` (stereo not drawn) [Example 210]: 540 nM; for `CC1(Cc2ccc(-c3ccc4ccccc4c3)cc2)NC(=O)N(c2cc(Cl)cc(Cl)c2)C1=O` (stereo not drawn) [Example 211]: ~2000 nM.
As for `CC1(Cc2ccc(-c3cccc(F)c3)cc2)NC(=O)N(c2cc(Cl)cc(Cl)c2)C1=O` (stereo not drawn) [Example 212], the affinity, expressed as Kd, was 70 nM.
`CC1(Cc2ccc(-c3ccccc3C(F)(F)F)cc2)NC(=O)N(c2cc(Cl)cc(Cl)c2)C1=O` (stereo not drawn) [Example 213]: the Kd is ~2000 nM.
In turn, `COc1cccc(-c2ccc(CC3(C)NC(=O)N(c4cc(Cl)cc(Cl)c4)C3=O)cc2)c1` (stereo not drawn) [Example 214] showed a Kd of 90 nM.
The compound `C[C@]1(Cc2ccc(C(=O)c3ccccc3)cc2)NC(=O)N(c2cc(Cl)cc(Cl)c2)C1=O` [Example 216] gave a Kd of 500 nM.
In turn, `O=C1NC(CCc2ccc(I)cc2)C(=O)N1c1cc(Cl)cc(Cl)c1` (stereo not drawn) [Example 217] had a Kd of 1780 nM.
In turn, `CC1(Cc2ccccc2)C(=O)N(c2cc(Cl)cc(Cl)c2)C(=O)N1CCO` (stereo not drawn) [Example 218] displayed a Kd of 800 nM.
In the case of `CC1(Cc2ccccc2)C(=O)N(c2cc(Cl)cc(Cl)c2)C(=O)N1CCCCC(=O)O` (stereo not drawn) [Example 219], the Kd came out at 1030 nM.
Still for that read-out and setting: for `C[C@@]1(Cc2ccc(Br)cc2)C(=O)N(c2cc(Cl)cc(Cl)c2)C(=O)N1CCCCCCP(=O)(O)O` [Example 220] the value was 270 nM; for `C[C@@]1(Cc2ccc(Br)cc2)C(=O)N(c2cc(Cl)cc(Cl)c2)C(=O)N1CCCCCP(=O)(O)O` [Example 221], 140 nM; for `C[C@@]1(Cc2ccc(Br)cc2)C(=O)N(c2cc(Cl)cc(Cl)c2)C(=O)N1CCCCCP(=O)(O)O` [Example 222], 60 nM.
`CN1C(=O)N(c2cc(Cl)cc(Cl)c2)C(=O)C1(CN)Cc1ccc(Br)cc1` (stereo not drawn) [Example 230] showed a dissociation constant (Kd) of 2200 nM.
`C[C@@]1(Cc2ccc(Br)cc2)C(=O)N(c2cc(Cl)cc(Cl)c2)C(=O)N1C(=O)[C@H](N)CO` [Example 232] yielded a Kd of 1240 nM.
Take `C[C@@]1(Cc2ccc(Br)cc2)C(=O)N(c2cc(Cl)cc(Cl)c2)C(=O)N1C(=O)[C@@H](N)CO` [Example 233]: binding was put at a Kd of 1790 nM.
Compound `C[C@@]1(Cc2ccc(Br)cc2)C(=O)N(c2cc(Cl)cc(Cl)c2)C(=O)N1C(=O)[C@@H]1CCCN1` [Example 234] had a Kd of 410 nM.
Still for that read-out and setting: the same measure for `C[C@@]1(Cc2ccc(Br)cc2)C(=O)N(c2cc(Cl)cc(Cl)c2)C(=O)N1C1CCN(CP(=O)(O)O)CC1` [Example 236]: 330 nM.
In turn, `C[C@@]1(Cc2ccc(Br)cc2)C(=O)N(c2cc(Cl)cc(Cl)c2)C(=O)N1COC(=O)C(CO)CO` [Example 238] returned a Kd of 80 nM.
Same read-out and setting: for `C[C@@]1(Cc2ccc(Br)cc2)C(=O)N(c2cc(Cl)cc(Cl)c2)C(=O)N1Cc1ccccc1C(=O)O` [Example 239] the value was 280 nM.
For `C[C@@]1(Cc2ccc(Br)cc2)C(=O)N(c2cc(Cl)cc(Cl)c2)C(=O)N1Cc1ccc(O)cc1` [Example 246], binding was put at a Kd of 250 nM.
For the compound `CN(C)C(=O)c1ccc(CC2(C)C(=O)N(c3cc(Cl)cc(Cl)c3)C(=O)N2C)cc1` (stereo not drawn) [Example 258], binding was put at a Kd of 1660 nM.
Regarding `CN1C(=O)N(c2cc(Cl)cc(Cl)c2)C(=O)C1(C)Cc1ccc(C(=O)N2CCCCC2)cc1` (stereo not drawn) [Example 259], the Kd turned out to be 3540 nM.
Take `CN1C(=O)N(c2cc(C(F)(F)F)cc(C(F)(F)F)c2)C(=O)[C@@]1(C)Cc1ccccc1` [Example 267]: the Kd came out at 400 nM.
On the same count and under the same terms, the same measure for `CN1C(=O)N(c2cc(C(F)(F)F)cc(C(F)(F)F)c2)C(=O)[C@]1(C)Cc1ccccc1` [Example 268]: 1590 nM.
`C[C@@H](c1ccccc1)[C@@]1(C)C(=O)N(c2cc(Cl)cc(Cl)c2)C(=O)N1C` [Example 270] registered a Kd of 650 nM.
Regarding `CCN1C(=O)N(c2cc(Cl)cc(Cl)c2)C(=O)[C@]1(C)Cc1ccc(Br)cc1` [Example 275], the Kd turned out to be 2000 nM.
Turning to `C[C@]1(Cc2ccc(Br)cc2)CC(=O)N(c2cc(Cl)cc(Cl)c2)C1=O` [Example 277], binding was put at a Kd of 70 nM.
Regarding `C[C@@]1(Cc2ccc(Br)cc2)CC(=O)N(c2cc(Cl)cc(Cl)c2)C1=O` [Example 278], binding was characterised by a dissociation constant (Kd) of 1090 nM.

Staying with this data set, now noted: at 160 μg/mL; read-out: LFA-1/ICAM Binding Assay percent inhibition.
Take `O=C1NC(Cc2cccnc2)C(=O)N1c1cc(Cl)cc(Cl)c1` (stereo not drawn) [Example 181]: the inhibition at 160 µg/mL was 47%.

The same data set, now with this note: values marked e approximated from incomplete dose-response curve.
`O=C1NC(Cc2ccccc2O)C(=O)N1c1cc(Cl)cc(Cl)c1` (stereo not drawn) [Example 3]: the Kd worked out at 3000 nM.
`O=C1NC(Cc2cccc(O)c2)C(=O)N1c1cc(Cl)cc(Cl)c1` (stereo not drawn) [Example 4] gave a Kd of 9320 nM.
`O=C1NC(Cc2ccc(O)cc2)C(=O)N1c1cc(Cl)cc(Cl)c1` (stereo not drawn) [Example 5] returned a Kd of 15400 nM.
On to `O=C1NC(c2ccccc2)C(=O)N1c1cc(Cl)cc(Cl)c1` (stereo not drawn) [Example 6], for which the Kd stood at 12800 nM.
Turning to `COc1ccc(CC2NC(=O)N(c3cc(Cl)cc(Cl)c3)C2=O)cc1` (stereo not drawn) [Example 8], the affinity, expressed as Kd, was 2860 nM.
For the compound `CC1(Cc2ccc(O)cc2)NC(=O)N(c2cc(Cl)cc(Cl)c2)C1=O` (stereo not drawn) [Example 9], the affinity, expressed as Kd, was 7870 nM.
For `O=C1NC(CCc2ccccc2)C(=O)N1c1cc(Cl)cc(Cl)c1` (stereo not drawn) [Example 12], the Kd turned out to be 1750 nM.
Compound `O=C1NC(C(O)c2ccccc2)C(=O)N1c1cc(Cl)cc(Cl)c1` (stereo not drawn) [Example 179] showed a Kd of 3840 nM.
The compound `C[C@]1(Cc2ccc(-c3ccc(C(=O)O)cc3)cc2)NC(=O)N(c2cc(Cl)cc(Cl)c2)C1=O` [Example 183] returned a Kd of 940 nM.
In the case of `C[C@]1(Cc2cccc(-c3ccccc3)c2)NC(=O)N(c2cc(Cl)cc(Cl)c2)C1=O` [Example 185], the affinity, expressed as Kd, was 250 nM.
In turn, `CN1C(=O)N(c2cc(Cl)cc(Cl)c2)C(=O)[C@@]1(C)Cc1ccc(-c2ccc(C(=O)O)cc2)cc1` [Example 186] displayed a Kd of 1110 nM.
Compound `CC1(Cc2ccc(-c3ccccc3Cl)cc2)NC(=O)N(c2cc(Cl)cc(Cl)c2)C1=O` (stereo not drawn) [Example 191] displayed a Kd of 140 nM.
`Cc1ccc(-c2ccc(CC3(C)NC(=O)N(c4cc(Cl)cc(Cl)c4)C3=O)cc2)cc1[N+](=O)[O-]` (stereo not drawn) [Example 192]: the Kd is ~1000 nM.
Same read-out and setting: for `CCOc1ccccc1-c1ccc(CC2(C)NC(=O)N(c3cc(Cl)cc(Cl)c3)C2=O)cc1` (stereo not drawn) [Example 193] the value was 290 nM; for `COc1ccccc1-c1ccc(CC2(C)NC(=O)N(c3cc(Cl)cc(Cl)c3)C2=O)cc1` (stereo not drawn) [Example 194], 270 nM.
`CC1(Cc2ccc(-c3cccs3)cc2)NC(=O)N(c2cc(Cl)cc(Cl)c2)C1=O` (stereo not drawn) [Example 195] came in with a Kd of 300 nM.
Take `CC1(Cc2ccc(-c3ccsc3)cc2)NC(=O)N(c2cc(Cl)cc(Cl)c2)C1=O` (stereo not drawn) [Example 196]: the Kd came to 90 nM.
For `Cc1ccccc1-c1ccc(CC2(C)NC(=O)N(c3cc(Cl)cc(Cl)c3)C2=O)cc1` (stereo not drawn) [Example 197], the Kd was determined as 190 nM.
`CCOc1cccc(-c2ccc(CC3(C)NC(=O)N(c4cc(Cl)cc(Cl)c4)C3=O)cc2)c1` (stereo not drawn) [Example 198] returned a Kd of 140 nM.
`CC1(Cc2ccc(-c3ccc(Cl)s3)cc2)NC(=O)N(c2cc(Cl)cc(Cl)c2)C1=O` (stereo not drawn) [Example 199] showed a Kd of 270 nM.
In the case of `CC1(Cc2ccc(-c3ccccc3F)cc2)NC(=O)N(c2cc(Cl)cc(Cl)c2)C1=O` (stereo not drawn) [Example 200], the Kd was found to be 90 nM.
Same read-out and setting: the same measure for `CC1(Cc2ccc(-c3ccc(Cl)cc3Cl)cc2)NC(=O)N(c2cc(Cl)cc(Cl)c2)C1=O` (stereo not drawn) [Example 201]: 680 nM.
Consider `CC1(Cc2ccc(-c3cccc(Cl)c3)cc2)NC(=O)N(c2cc(Cl)cc(Cl)c2)C1=O` (stereo not drawn) [Example 202], for which binding was put at a Kd of 230 nM.
`CC(=O)Nc1cccc(-c2ccc(CC3(C)NC(=O)N(c4cc(Cl)cc(Cl)c4)C3=O)cc2)c1` (stereo not drawn) [Example 203] came in with a Kd of 340 nM.
Same read-out and setting: the same measure for `CC1(Cc2ccc(-c3cccc([N+](=O)[O-])c3)cc2)NC(=O)N(c2cc(Cl)cc(Cl)c2)C1=O` (stereo not drawn) [Example 204]: 500 nM; for `CC1(Cc2ccc(-c3ccc(Cl)cc3)cc2)NC(=O)N(c2cc(Cl)cc(Cl)c2)C1=O` (stereo not drawn) [Example 205]: 560 nM.
Compound `CC1(Cc2ccc(-c3cccc(Br)c3)cc2)NC(=O)N(c2cc(Cl)cc(Cl)c2)C1=O` (stereo not drawn) [Example 206] displayed a Kd of 730 nM.
Compound `CCOc1ccc(-c2ccc(CC3(C)NC(=O)N(c4cc(Cl)cc(Cl)c4)C3=O)cc2)cc1` (stereo not drawn) [Example 207] gave a Kd of 1280 nM.
The same measure, in the same setting: the same measure for `CC1(Cc2ccc(-c3ccc(C(F)(F)F)cc3)cc2)NC(=O)N(c2cc(Cl)cc(Cl)c2)C1=O` (stereo not drawn) [Example 208]: 650 nM.

In the next data set the test system is SKW3 cells.
Assay: not given
Conditions: not given
As to `O=C1NC(Cc2ccccc2O)C(=O)N1c1cc(Cl)cc(Cl)c1` (stereo not drawn) [Example 3], the “Cellular Toxicity Assay MTT LD50” value is 125 to 250 µM.
As for `O=C1NC(Cc2cccc(O)c2)C(=O)N1c1cc(Cl)cc(Cl)c1` (stereo not drawn) [Example 4], the “Cellular Toxicity Assay MTT LD50” value lay within 250 to 500 µM.
For the compound `O=C1NC(Cc2ccc(O)cc2)C(=O)N1c1cc(Cl)cc(Cl)c1` (stereo not drawn) [Example 5], the “Cellular Toxicity Assay MTT LD50” value lay in the range of 250 to 500 µM.
On the same count and under the same terms, the same measure for `O=C1NC(c2ccccc2)C(=O)N1c1cc(Cl)cc(Cl)c1` (stereo not drawn) [Example 6]: 250 to 500 µM.
Consider `COc1ccc(CC2NC(=O)N(c3cc(Cl)cc(Cl)c3)C2=O)cc1` (stereo not drawn) [Example 8], for which the “Cellular Toxicity Assay MTT LD50” value lay within 125 to 500 µM.
As to `CC1(Cc2ccc(O)cc2)NC(=O)N(c2cc(Cl)cc(Cl)c2)C1=O` (stereo not drawn) [Example 9], the “Cellular Toxicity Assay MTT LD50” value fell in the range of 250 to 500 µM.
Turning to `O=C1NC(CCc2ccccc2)C(=O)N1c1cc(Cl)cc(Cl)c1` (stereo not drawn) [Example 12], the “Cellular Toxicity Assay MTT LD50” value was in the range of 125 to 250 µM.
Same read-out and setting: the same measure for `CN1C(=O)N(c2cc(C(F)(F)F)cc(C(F)(F)F)c2)C(=O)[C@@]1(C)Cc1ccccc1` [Example 267]: 250 µM; for `CN1C(=O)N(c2cc(C(F)(F)F)cc(C(F)(F)F)c2)C(=O)[C@]1(C)Cc1ccccc1` [Example 268]: 250 to 500 µM.
Take `C[C@@H](c1ccccc1)[C@@]1(C)C(=O)N(c2cc(Cl)cc(Cl)c2)C(=O)N1C` [Example 270]: the “Cellular Toxicity Assay MTT LD50” value is 250 to 500 µM.
